Assays:
Assay type in all cases: in vivo
[1] = system: barnyardgrass (Echinochloa crus-galli); test: Test A preemergence, barnyardgrass; conditions: 0 to 100 scale
Description: (§1) Seeds of plant species selected from barnyardgrass (Echinochloa crus-galli), kochia (Kochia scoparia), ragweed (common ragweed, Ambrosia elatior), ryegrass, Italian (Lolium multiflorum), foxtail, giant (Setaria faberii), foxtail, green (Setaria viridis), and pigweed (Amaranthus retroflexus) were planted into a blend of loam soil and sand and treated preemergence with a directed soil spray using test chemicals formulated in a non-phytotoxic solvent mixture which included a surfactant.
(§2) At the same time, plants selected from these weed species and also wheat (Triticum aestivum), corn (Zea mays), blackgrass (Alopecurus myosuroides), and galium (catchweed bedstraw, Galium aparine) were planted in pots containing the same blend of loam soil and sand and treated with postemergence applications of test chemicals formulated in the same manner. Plants ranged in height from 2 to 10 cm and were in the one- to two-leaf stage for the postemergence treatment. Treated plants and untreated controls were maintained in a greenhouse for approximately 10 d, after which time all treated plants were compared to untreated controls and visually evaluated for injury. Plant response ratings, summarized in Table A, are based on a 0 to 100 scale where 0 is no effect and 100 is complete control. A dash (-) response means no test result.

[2] = system: ryegrass, Italian (Lolium multiflorum); test: Test A postemergence, Italian ryegrass; conditions: 0 to 100 scale
Description: as §1, §2

kochia (Kochia scoparia) [3] = test: Test A postemergence, kochia; conditions: 0 to 100 scale
Description: as §1, §2

[4] = system: barnyardgrass (Echinochloa crus-galli); test: Test A postemergence, barnyardgrass; conditions: 0 to 100 scale
Description: as §1, §2

[5] = system: ryegrass, Italian (Lolium multiflorum); test: Test A preemergence, Italian ryegrass; conditions: 0 to 100 scale
Description: as §1, §2

[6] = system: ragweed (common ragweed, Ambrosia elatior); test: Test A postemergence, ragweed; conditions: 0 to 100 scale
Description: as §1, §2

[7] = system: sedge, umbrella (small-flower umbrella sedge, Cyperus difformis); test: Test B flooded paddy test, umbrella sedge; conditions: Flood, 250 g ai/ha, applied to paddy water, 2-leaf stage, visual evaluation after 13 to 15 d
Protocol: (§3) Plant species in the flooded paddy test selected from rice (Oryza sativa), sedge, umbrella (small-flower umbrella sedge, Cyperus difformis), ducksalad (Heteranthera limosa), and barnyardgrass (Echinochloa crus-galli) were grown to the 2-leaf stage for testing. At the time of treatment, test pots were flooded to 3 cm above the soil surface, treated by application of test compounds directly to the paddy water, and then maintained at that water depth for the duration of the test. Treated plants and controls were maintained in a greenhouse for 13 to 15 d, after which time all species were compared to controls and visually evaluated. Plant response ratings, summarized in Table B, are based on a scale of 0 to 100 where 0 is no effect and 100 is complete control. A dash (-) response means no test result.

[8] = system: galium (catchweed bedstraw, Galium aparine); test: Test A postemergence, galium; conditions: 0 to 100 scale
Description: as §1, §2

[9] = system: wheat (Triticum aestivum); test: Test A postemergence, wheat; conditions: 0 to 100 scale
Description: as §1, §2

kochia (Kochia scoparia) [10] = test: Test A preemergence, kochia; conditions: 0 to 100 scale
Description: as §1, §2

rice (Oryza sativa) = test: Test B flooded paddy test, rice; conditions: Flood, 250 g ai/ha, applied to paddy water, 2-leaf stage, visual evaluation after 13 to 15 d
Protocol: as §3

[11] = system: ducksalad (Heteranthera limosa); test: Test B flooded paddy test, ducksalad; conditions: Flood, 250 g ai/ha, applied to paddy water, 2-leaf stage, visual evaluation after 13 to 15 d
Protocol: as §3

[12] = system: blackgrass (Alopecurus myosuroides); test: Test A postemergence, blackgrass; conditions: 0 to 100 scale
Description: as §1, §2

[13] = system: pigweed (Amaranthus retroflexus); test: Test A postemergence, pigweed; conditions: 0 to 100 scale
Description: as §1, §2

[14] = system: foxtail, giant (Setaria faberii); test: Test A preemergence, giant foxtail; conditions: 0 to 100 scale
Description: as §1, §2

[15] = system: barnyardgrass (Echinochloa crus-galli); test: Test B flooded paddy test, barnyardgrass; conditions: Flood, 250 g ai/ha, applied to paddy water, 2-leaf stage, visual evaluation after 13 to 15 d
Protocol: as §3

[16] = system: foxtail, giant (Setaria faberii); test: Test A postemergence, giant foxtail; conditions: 0 to 100 scale
Description: as §1, §2

corn (Zea mays) = test: Test A postemergence, corn; conditions: 0 to 100 scale
Description: as §1, §2

[17] = system: pigweed (Amaranthus retroflexus); test: Test A preemergence, pigweed; conditions: 0 to 100 scale
Description: as §1, §2

| Structure (SMILES) | Plant response rating, Barnyardgrass ([1]; 125 g ai/ha) | Plant response rating, Barnyardgrass ([1]; 500 g ai/ha) | Plant response rating, Ryegrass, Italian ([2]; 125 g ai/ha) | Plant response rating, Ryegrass, Italian ([2]; 500 g ai/ha) | Plant response rating, Kochia (kochia (Kochia scoparia) [3]; 125 g ai/ha) | Plant response rating, Kochia (kochia (Kochia scoparia) [3]; 500 g ai/ha) | Plant response rating, Barnyardgrass ([4]; 125 g ai/ha) | Plant response rating, Barnyardgrass ([4]; 500 g ai/ha) | Plant response rating, Ryegrass, Italian ([5]; 125 g ai/ha) | Plant response rating, Ryegrass, Italian ([5]; 500 g ai/ha) | Plant response rating, Ragweed ([6]; 125 g ai/ha) | Plant response rating, Ragweed ([6]; 500 g ai/ha) | Plant response rating, Sedge, Umbrella (0 to 100 scale, 0 is no effect, 100 is complete control) [7] | Plant response rating, Galium ([8]; 125 g ai/ha) | Plant response rating, Galium ([8]; 500 g ai/ha) | Plant response rating, Wheat ([9]; 125 g ai/ha) | Plant response rating, Wheat ([9]; 500 g ai/ha) | Plant response rating, Kochia (kochia (Kochia scoparia) [10]; 125 g ai/ha) | Plant response rating, Kochia (kochia (Kochia scoparia) [10]; 500 g ai/ha) | Plant response rating, Rice (0 to 100 scale, 0 is no effect, 100 is complete control) (rice (Oryza sativa)) | further results |
| --- | --- | --- | --- | --- | --- | --- | --- | --- | --- | --- | --- | --- | --- | --- | --- | --- | --- | --- | --- | --- | --- |
| C[C@H](Nc1ncc(C(F)(F)F)c(N)n1)C1Cc2ccccc2C1 [Compound 12] | 0 | 0 | 0 | 0 | 0 | 30 | 0 | 0 | 0 | 0 | 0 | 0 | 0 | 0 | 0 | 0 | 0 | 0 | 0 | 0 | Plant response rating, Ducksalad (0 to 100 scale, 0 is no effect, 100 is complete control) [11]: 0; Plant response rating, Blackgrass ([12]; 125 g ai/ha): 0; Plant response rating, Blackgrass ([12]; 500 g ai/ha): 0; Plant response rating, Pigweed ([13]; 125 g ai/ha): 30; Plant response rating, Pigweed ([13]; 500 g ai/ha): 40; Plant response rating, Foxtail, Giant ([14]; 125 g ai/ha): 0; Plant response rating, Foxtail, Giant ([14]; 500 g ai/ha): 0; Plant response rating, Barnyardgrass (0 to 100 scale, 0 is no effect, 100 is complete control) [15]: 0; Plant response rating, Foxtail, Giant ([16]; 125 g ai/ha): 0; Plant response rating, Foxtail, Giant ([16]; 500 g ai/ha): 0; Plant response rating, Corn (corn (Zea mays); 125 g ai/ha): 0; Plant response rating, Corn (corn (Zea mays); 500 g ai/ha): 0; Plant response rating, Pigweed ([17]; 125 g ai/ha): 0; Plant response rating, Pigweed ([17]; 500 g ai/ha): 50 |
| Cc1cc2oc([C@@H](C)Nc3ncc(C(F)(F)F)c(N)n3)cc2cc1F [Compound 31] | 70 | 100 | 30 | 10 | 60 | 90 | 20 | 80 | 20 | 80 | 60 | 90 | 0 | 70 | 100 | 0 | 0 | 40 | 90 | 0 | Plant response rating, Ducksalad (0 to 100 scale, 0 is no effect, 100 is complete control) [11]: 0; Plant response rating, Blackgrass ([12]; 125 g ai/ha): 20; Plant response rating, Blackgrass ([12]; 500 g ai/ha): 10; Plant response rating, Pigweed ([13]; 125 g ai/ha): 90; Plant response rating, Pigweed ([13]; 500 g ai/ha): 100; Plant response rating, Foxtail, Giant ([14]; 125 g ai/ha): 90; Plant response rating, Foxtail, Giant ([14]; 500 g ai/ha): 100; Plant response rating, Barnyardgrass (0 to 100 scale, 0 is no effect, 100 is complete control) [15]: 0; Plant response rating, Foxtail, Giant ([16]; 125 g ai/ha): 10; Plant response rating, Foxtail, Giant ([16]; 500 g ai/ha): 70; Plant response rating, Corn (corn (Zea mays); 125 g ai/ha): 0; Plant response rating, Corn (corn (Zea mays); 500 g ai/ha): 30; Plant response rating, Pigweed ([17]; 125 g ai/ha): 90; Plant response rating, Pigweed ([17]; 500 g ai/ha): 100 |
